According to PubChem BioAssay (NCI):
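Cells were grown in 96-well plates and exposed to each compound for 48 hours at five concentrations; endpoints were interpolated linearly between bracketing concentrations, or set to the highest concentration if not reached. Abbreviation: GI50, concentration required for 50% inhibition of growth. TGI marks complete inhibition of growth.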

Assays:
Test in all cases: growth of human tumour cells (NCI), 48 h
BT-549 breast = system: BT-549 breast
A498 renal = system: A498 renal
NCI-H522 lung = system: NCI-H522 lung
RXF 393 renal = system: RXF 393 renal
HCT-116 colon = system: HCT-116 colon
COLO 205 colon = system: COLO 205 colon
A549 NSCLC = system: A549 NSCLC
SF-268 CNS = system: SF-268 CNS
T-47D breast = system: T-47D breast
SK-MEL-28 melanoma = system: SK-MEL-28 melanoma

| SMILES | GI50 (BT-549 breast) [µM] | TGI (BT-549 breast) [µM] | GI50 (A498 renal) [µM] | TGI (A498 renal) [µM] | GI50 (NCI-H522 lung) [µM] | TGI (NCI-H522 lung) [µM] | GI50 (RXF 393 renal) [µM] | TGI (RXF 393 renal) [µM] | GI50 (HCT-116 colon) [µM] | TGI (HCT-116 colon) [µM] | GI50 (COLO 205 colon) [µM] | TGI (COLO 205 colon) [µM] | GI50 (A549 NSCLC) [µM] | TGI (A549 NSCLC) [µM] | GI50 (SF-268 CNS) [µM] | TGI (SF-268 CNS) [µM] | GI50 (T-47D breast) [µM] | TGI (T-47D breast) [µM] | GI50 (SK-MEL-28 melanoma) [µM] | TGI (SK-MEL-28 melanoma) [µM] |
| --- | --- | --- | --- | --- | --- | --- | --- | --- | --- | --- | --- | --- | --- | --- | --- | --- | --- | --- | --- | --- |
| Cc1cc(Cl)cc2c(N=Nc3ccc(S(N)(=O)=O)cc3)c(O)[nH]c12 | > 25 | > 25 | > 25 | > 25 | > 25 | > 25 | > 14.5 | > 25 | > 25 | > 25 | > 25 | > 25 | > 25 | > 25 | > 25 | > 25 | > 25 | > 25 | > 25 | > 25 |
| CSC1=Nc2c(c(C)c(-c3ccccc3)n2CCCN2CCCCC2)C2=NC(=O)C[C@H](C)N12 | 2.83 | 13.7 | 2.6 | 9.64 | 2.55 | 9.78 | 2.56 | 10.2 | 2.71 | > 44.6 | 1.51 | 2.95 | 3.57 | > 32.6 | 3.96 | 21.9 | 2.28 | 8.53 | 3.32 | 14.9 |
| COc1cc2nccc(Oc3ccc(NC(=O)NC4CC4)c(Cl)c3)c2cc1C(N)=O | 5.17 | 27.2 | 4.63 | 51.1 | 5.74 | 28.2 | 12.4 | 43.4 | 25.4 | > 100 | > 72.8 | > 100 | 29.9 | > 100 | 10.3 | 48 | 14.4 | > 100 | 41.3 | > 100 |
| NS(=O)(=O)OCC1OC(n2cnc3cncnc32)C(O)C1O (stereo not given) | 0.0275 | 0.0913 | 0.0216 | 0.0821 | < 0.01 | 0.0232 | 0.0235 | 0.065 | 0.0157 | 0.033 | 0.0291 | 0.0847 | 0.0246 | 0.115 | 0.0267 | 0.279 | < 0.0134 | 0.0665 | 0.039 | 0.185 |
| CN1CCC(COc2cnc(-c3cccc(Cn4nc(-c5cccc(C#N)c5)ccc4=O)c3)nc2)CC1 | 4.66 | 15.2 | 7.2 | 20.6 | 2.27 | 5.06 | 1.49 | 3.08 | 2.41 | 6.35 | 1.92 | 3.68 | 3.52 | 14.7 | 3.81 | 16.4 | 2.27 | 5.99 | 1.82 | 3.52 |
| CC[C@@H]1[C@@H](C)O[C@@](O)([C@@H](C)[C@H](O)[C@H](C)[C@H]2OC(=O)/C=C/C=C/[C@H](C)[C@@H]([C@@H](C)[C@@H](O)[C@H](C)[C@@]3(O)C[C@@H](O[C@H]4C[C@@H](O)[C@H](O)C(C)O4)[C@H](CC)[C@@H](C)O3)OC(=O)/C=C/C=C/[C@@H]2C)C[C@H]1O[C@@H]1C[C@@H](O)[C@H](O)C(C)O1 (stereo not given in full) | 0.0569 | 0.124 | 0.0596 | 0.131 | 0.0885 | 0.303 | 0.0521 | 0.119 | 0.0688 | 0.165 | 0.0795 | 0.179 | 0.112 | 0.344 | 0.0698 | 0.175 | 0.0949 | 0.34 | 0.0885 | 0.258 |
| Cn1cc(C2=C(c3ccccc3[N+](=O)[O-])C(=O)NC2=O)c2ccccc21 | 5.26 | > 20.2 | 0.384 | 2.57 | 5.78 | 18.1 | 1.61 | 7.19 | 1.38 | > 25 | 2.79 | 6.38 | 4.09 | > 21.8 | 5.64 | 18 | 7.52 | 23.5 | 6.24 | 20.1 |
| Nc1c(C(=O)c2ccc(-c3cccnc3)cc2)cnn1-c1ccc(F)cc1 | > 25 | > 25 | > 18.8 | > 25 | > 12.7 | > 23.1 | 14.5 | > 25 | > 14 | > 25 | > 21.9 | > 25 | > 14.4 | > 25 | > 15.8 | > 25 | 9.72 | > 21.7 | > 17.4 | > 25 |
| Cc1cccc(-c2[nH]ncc2-c2ccc3ncccc3n2)n1 | > 25 | > 25 | > 14.1 | > 25 | > 25 | > 25 | 5.87 | 12.7 | 7.78 | > 25 | 6.31 | 16.7 | 9.27 | > 25 | 10.5 | > 25 | 7.07 | > 23.9 | 13.3 | > 25 |
| C=CCC(N[C@@H](CO)c1ccccc1)c1cn(Cc2ccccc2Cl)c(=O)n(Cc2ccccc2Cl)c1=O (stereo not given in full) | 76.2 | > 100 | 13.5 | > 100 | > 100 | > 100 | > 100 | > 100 | 87.3 | > 100 | > 100 | > 100 | > 100 | > 100 | > 100 | > 100 | > 100 | > 100 | > 100 | > 100 |
| CN(C)c1ccc(/C=C/c2ccnc3c(O)cccc23)cc1 | 1.01 | > 100 | 3.39 | > 100 | 0.257 | 1.72 | 0.813 | 15.1 | 0.401 | > 100 | 18.5 | > 100 | 0.376 | > 100 | 0.463 | > 100 | 0.375 | > 100 | 0.624 | > 100 |
